Data reported in patent US20260327274A1, “PROTEIN HYDROLYSATES OF AZUKI BEANS AND COSMETIC USES THEREOF” (LUBRIZOL ADVANCED MATERIALS, INC., priority 2022, published 2026).
Ends that are not written are not given here.

Columns and labels:
[1] = DPPH inhibition by synthesized peptides identified in the hydrolysate; assay type: biochemical; conditions: for DPPH inhibition (%): synthesized peptide, test concentration not given; for Ability to inhibit DPPH / antioxidant potential (in words): synthesized peptides, F′2 subfraction
Protocol: (§1) Twelve different batches of purified hydrolysate obtained as described from Examples 1 to 3 are analyzed to determine the dry weight, protein content and antioxidant activity. • Dry weight is determined by weight difference after drying at 110° C. • Protein content is determined by using a BCA Assay kit. • Antioxidant activity is determined by DPPH (2,2-Diphenyl-1-Picrylhydrazyl) assay. • Briefly, 50 μL of 100 µM DPPH in EtOH is mixed with 50 μL of purified hydrolysate and incubated in the dark at 37° C. for 20 min and absorbance measured at 517 nm.
The purified extract according to Example 3 is further fractionated by using semi-preparative high-performance liquid chromatography (HPLC) and antioxidant activity assayed by DPPH for identifying the active fraction or peptides.
Collected tubes are analyzed by analytical HPLC at 3.0 mg/ml using a Cortecs C18+column (4.6×50 mm; 2.7 μm; Waters®) at a flow of 1.6 ml/min using the following gradient composition: isocratic of 0% B in 2 min, 0 to 30% of B in 5 min, and 30 to 75% of B in 5 min, monitoring absorbance of eluting peaks at 220 nm. Different fractions are obtained from the purified hydrolysate and lyophilized for further analysis and separation. Fractions are reconstituted in water and their antioxidant activity is determined by measuring the percentage of DPPH inhibition using the methodology described above.
To identify peptide sequences, the Proteome Discoverer 1.4.0.288 program (Thermo) with MASCOT 2.5 is used. The identified peptides are individually synthesized by applying standard solid phase peptide synthesis, using Fmoc/tBu chemistry protocols. As starting resin, CTC-PS or HO-Trt-Chem Matrix® resin is used. In the latter case, initial resin chlorination took place by overnight reaction with […] in dry THF. The first amino acid is introduced as a solution in DMF in presence of DIEA as base, followed by capping of the resin with MeOH. The resin is washed with DMF, prior to removal of Fmoc group by treatment with a 20% solution of piperidine in DMF, followed by washings in the same solvent. Subsequent residues are incorporated in DMF employing DIPCDI and Oxyma as coupling reagents. After verification of reaction completion using ninhydrin test, the solvent is filtrated away by suction. After this, the resin is washed with DMF and the Fmoc-deprotection step is repeated as abovementioned or in 2% DBU in DMF. Coupling-deprotection cycles are repeated for introduction of the remaining amino acids, with increasing Fmoc removal treatment times from the 6th residue. Oxyma (0.5M) is introduced in the cocktail whenever Asp residue is already incorporated into the growing peptide chain.
The peptidyl resin is washed and dried using DMF, DCM and diethyl ether and finally left under vacuum overnight to get rid of solvent traces. Cleavage of the crude product from the solid support and removal of the side-chain protecting groups is achieved by acidolysis using TFA and 5% water as scavenger. The peptide is precipitated out of the acidic mixture with Et2O, followed by washes with the same solvent and drying under reduced pressure. Crude trifluoroacetate salt peptide is lyophilized and analyzed by analytical HPLC-MS, affording peptide purities over 80%.
Synthesized peptides are further evaluated for its capacity to inhibit DPPH as a reference for their antioxidant potential. […] ID.

Caucasian hair shafts = assay: Ex vivo protection evaluation in Caucasian hair shafts (protein carbonylation); set-up: species or system human; conditions: positive control NAC, concentration not given; stress (PM + UV-A); basal control 100, stress 214
Source text: Carbonylated proteins in hair shafts or HFDPC are labeled in situ using a fluorescent probe functionalized to specifically bind carbonyl groups in proteins [Baraibar, M A, et al., “Proteomic quantification and identification of carbonylated proteins upon oxidative stress and during cellular aging” J. Proteomics (2013) 30; 92:63-70]. Specific fluorescent signals (relative fluorescent units) per experimental group (n=6) are collected and analyzed with ImageJ™ software. A relative value (%) of Carbonylation Level per experimental group is obtained with respect to basal control.
hair shafts (donor; light brown) are treated with hydrolysate of Example 3 at 1% (v/v) (active ingredient solubilized in ultra-pure water, leave on (no washing steps)) for 30 minutes with gently movement at room temperature. After this time, hair shafts are dried at room temperature and are stressed with Particle Matters at 150 μg/cm^2 (from European Reference Material; Ref. CZ100) followed by UV-A irradiation (LED source, emission peak at 365 nm, 84 J/cm^2) for 6 h.
After stress exposure Proteins Carbonylation is determined as described in Example 5.

[2] = DPPH assay of antioxidant activity in combination with preservatives, initial and after 3 months storage; assay type: biochemical; conditions: 0.5% (w/w) Sodium Benzoate alone
Protocol: as §1
The inhibition percentage is calculated from the following formula: […]
Suitable preservative [1% (w/w) Dermosoft™ 700B (INCI: Levulinic Acid (and) Sodium Levulinate (and) Glycerin (and) Aqua), 4% (w/w) Leucidal™ SF Max from Active Micro Technologies (AMT) (INCI: Lactobacillus Ferment) or 4% (w/w) Leucidal™ Liquid (INCI: Leuconostoc/Radish Root Ferment Filtrate)] is added onto deionized water under continuous stirring. Purified hydrolysate according to Example 3 is added on top of this solution to obtain a concentration of 44-88% (v/v), depending on sample dry weight. […] Samples are maintained for 3 months at 40° C. or at room temperature and antioxidant activity determined by DPPH assay.

Row | Compound | DPPH inhibition (%) [1] | Ability to inhibit DPPH / antioxidant potential (in words) [1] | Carbonylation level % (MEAN ± SEM) (Caucasian hair shafts) | % DPPH INHIBITION, t = 0 [2]
1 | VDAQPEEQQR [SEQ ID No. 3] | 100% | most antioxidant peptides | – | –
2 | CC(=O)N[C@@H](CS)C(=O)O [NAC, N-acetyl-cysteine] | – | – | 166.8 ± 5.41 % | –
3 | GINAENNQRN [SEQ ID No. 4] | 96.3% | most antioxidant peptides | – | –
4 | EYTGDAAGR [SEQ ID No. 5] | 83.9% | most antioxidant peptides | – | –
5 | O=C(O)c1ccccc1 [Sodium Benzoate] | – | – | – | 0%
6 | LPQQEQGHDR [SEQ ID No. 2] | 77.5% | most antioxidant peptides | – | –
7 | VAEQEQEQAKRQ [SEQ ID No. 1] | 78.7% | most antioxidant peptides | – | –
